Laboratory results as given in patent US20050233058A1, “Aminoacid derivatives of dicarboxylic acids as flavor ingredients” (priority 2004, published 2005).

Experiment: Organoleptic description of the compounds (umami, mouthfeel)
Details: for Additional feeling imparted: in a meet type application

Compound | Additional feeling imparted | Taste / organoleptic character of the compound
CC(C)C[C@H](NC(=O)CCCC(=O)O)C(=O)O [Glutaryl-Leu, N-(4-carboxybutanoyl)-L-leucine] | slightly more fatty feeling | 
O=C(O)/C=C\C(=O)N[C@@H](CCC(=O)O)C(=O)O [Maleyl-Glu, (Z)-N-(3-carboxy-2-propenoyl)-L-glutamic acid] | slightly more juicy feeling | 
O=C(O)CCCC(=O)N[C@@H](CCC(=O)O)C(=O)O [glutaryl-Glu, N-(4-carboxybutanoyl)L-glutamic acid] | slightly more fatty feeling | 
O=C(O)CCC(=O)N[C@@H](CCC(=O)O)C(=O)O [succinoyl-Glu, N-(3-carboxypropionyl)-glutamic acid] |  | slightly acidic note together with a well perceivable umami taste or character having a broth connotation
CC(C)C[C@H](NC(=O)CCC(=O)O)C(=O)O [succinoyl-Leu, N-(3-carboxypropionyl)leucine] |  | slightly more acidic and slightly less umami taste than the one of succinoyl-Glu
